Laboratory results published in ChEMBL document CHEMBL5518232, “Discovery of New Tricyclic Oxime Sampangine Derivatives as Potent Antifungal Agents for the Treatment of Cryptococcosis and Candidiasis” (J Med Chem, 2024).
In brackets after ≈: the same amount, converted by molar mass. Activity calls are given as the source filed them. The rule behind the calls is not given here.

Legend:
Cryptococcus neoformans [1] = experiment: Inhibition of biofilm formation in Cryptococcus neoformans H99 at 64 ug/ml incubated for 24 hrs by microplate based analysis relative to control; assay type: functional
Candida albicans [2] = experiment: In vivo antifungal activity against Candida albicans 0304103 infected in […] ICR mouse model assessed as reduction in fungal burden in kidney at 5 mg/kg, ip measured for 5 days in presence of (Z)-8-(methoxyimino)-3-methylthieno[3',2':4,5]benzo[1,2-d]isoxazol-4(8H)-one (reference value: 7.37 log10CFU/g); assay type: functional; conditions: time 5 day
Candida albicans [3] = experiment: Antifungal activity against Candida albicans 0304103 assessed as downregulation of GCA1 expression at 8 ug/ml incubated for 24 hrs in presence of (Z)-8-(methoxyimino)-3-methylthieno[3',2':4,5]benzo[1,2-d]isoxazol-4(8H)-one by RT-PCR analysis; assay type: functional, organism-based; conditions: dose 8.0 µg/ml
Candida albicans [4] = experiment: Antifungal activity against Candida albicans 0304103 assessed as downregulation of RLM1 expression at 8 ug/ml incubated for 24 hrs in presence of (Z)-8-(methoxyimino)-3-methylthieno[3',2':4,5]benzo[1,2-d]isoxazol-4(8H)-one by RT-PCR analysis; assay type: functional, organism-based; conditions: dose 8.0 µg/ml
Candida albicans [5] = experiment: Synergistic antifungal activity against Candida albicans 0304103 assessed as inhibition of fungal growth incubated for 48 hrs in presence of (Z)-8-(ethoxyimino)-3-methylthieno[3',2':4,5]benzo[1,2-d]isoxazol-4(8H)-one by checkerboard microdilution assay; assay type: functional
Candida albicans [6] = experiment: Synergistic antifungal activity against Candida albicans 0304103 assessed as inhibition of fungal growth incubated for 48 hrs in presence of (Z)-9-(methoxyimino)-3-methylnaphtho[2,3-d]isoxazol-4(9H)-one by checkerboard microdilution assay; assay type: functional
Candida albicans [7] = experiment: Antifungal activity against Candida albicans 0304103 assessed as downregulation of CDR1 expression at 8 ug/ml incubated for 24 hrs in presence of (Z)-8-(methoxyimino)-3-methylthieno[3',2':4,5]benzo[1,2-d]isoxazol-4(8H)-one by RT-PCR analysis; assay type: functional, organism-based; conditions: dose 8.0 µg/ml
[8] = Antifungal activity against Cryptococcus gattii VGI ATCC 14116 assessed as reduction in fungal growth incubated for 72 hrs by liquid based microdilution method; assay type: functional
Candida albicans [9] = experiment: Synergistic antifungal activity against Candida albicans 0304103 assessed as inhibition of fungal growth incubated for 48 hrs in presence of ((Z)-8-(methoxyimino)-3-methylthieno[3',2':4,5]benzo[1,2-d]isoxazol-4(8H)-one by checkerboard microdilution assay; assay type: functional
Candida albicans [10] = experiment: Inhibition of biofilm formation in Candida albicans 0304103 at 8 ug/ml incubated for 24 hrs in presence of (Z)-8-(methoxyimino)-3-methylthieno[3',2':4,5]benzo[1,2-d]isoxazol-4(8H)-one by microplate based analysis relative to control; assay type: functional
Candida albicans [11] = experiment: Antifungal activity against Candida albicans SC5314 assessed as reduction in fungal growth incubated for 48 hrs by liquid based microdilution method; assay type: functional
Candida albicans [12] = experiment: Antifungal activity against Candida albicans 0304103 assessed as reversal of ERG11 expression by measuring fold change at 8 ug/ml incubated for 24 hrs in presence of (Z)-8-(methoxyimino)-3-methylthieno[3',2':4,5]benzo[1,2-d]isoxazol-4(8H)-one by RT-PCR analysis (reference value: 8.8); assay type: functional; conditions: dose 8 µg/ml
Candida albicans [13] = experiment: Synergistic antifungal activity against Candida albicans 0304103 assessed as inhibition of fungal growth incubated for 48 hrs in presence of (Z)-9-(hydroxyimino)-3-methylnaphtho[2,3-d]isoxazol-4(9H)-one by checkerboard microdilution assay; assay type: functional
Nakaseomyces glabratus = experiment: Antifungal activity against Candida glabrata 9073 assessed as reduction in fungal growth incubated for 48 hrs by liquid based microdilution method; assay type: functional
Candida albicans [14] = experiment: Synergistic antifungal activity against Candida albicans 0304103 assessed as inhibition of fungal growth incubated for 48 hrs in presence of (Z)-8-(hydroxyimino)-3-methylthieno[3',2':4,5]benzo[1,2-d]isoxazol-4(8H)-one by checkerboard microdilution assay; assay type: functional
Candida tropicalis = experiment: Antifungal activity against Candida tropicalis 10186 assessed as reduction in fungal growth incubated for 48 hrs by liquid based microdilution method; assay type: functional
Candida albicans [15] = experiment: In vivo antifungal activity against Candida albicans SC5314 infected in […] ICR mouse model assessed as reduction in fungal burden in kidney at 0.5 mg/kg, ip measured for 5 days in presence of (Z)-8-(methoxyimino)-3-methylthieno[3',2':4,5]benzo[1,2-d]isoxazol-4(8H)-one; assay type: functional; conditions: time 5 day
Candida albicans [16] = experiment: Antifungal activity against Candida albicans 0304103 assessed as downregulation of APH5 expression at 8 ug/ml incubated for 24 hrs in presence of (Z)-8-(methoxyimino)-3-methylthieno[3',2':4,5]benzo[1,2-d]isoxazol-4(8H)-one by RT-PCR analysis; assay type: functional, organism-based; conditions: dose 8.0 µg/ml
Candida albicans [17] = experiment: Antifungal activity against Candida albicans 0304103 assessed as reduction in fungal growth incubated for 48 hrs by liquid based microdilution method; assay type: functional
Candida albicans [18] = experiment: Synergistic antifungal activity against Candida albicans 0304103 assessed as inhibition of fungal growth incubated for 48 hrs in presence of (Z)-8-(methoxyimino)-3-methylbenzofuro[6,5-d]isoxazol-4(8H)-one by checkerboard microdilution assay; assay type: functional
Candida albicans [19] = experiment: Synergistic antifungal activity against Candida albicans 0304103 assessed as inhibition of fungal growth incubated for 48 hrs in presence of (4Z,8Z)-benzo[1,2-b:4,5-b']dithiophene-4,8-dione O,O-dimethyl dioxime by checkerboard microdilution assay; assay type: functional
Candida albicans [20] = experiment: Antifungal activity against Candida albicans 0304103 assessed as downregulation of ERG11 expression at 8 ug/ml incubated for 24 hrs in presence of (Z)-8-(methoxyimino)-3-methylthieno[3',2':4,5]benzo[1,2-d]isoxazol-4(8H)-one by RT-PCR analysis; assay type: functional, organism-based; conditions: dose 8.0 µg/ml
Candida albicans [21] = experiment: Synergistic antifungal activity against Candida albicans 0304103 assessed as inhibition of fungal growth incubated for 48 hrs in presence of (Z)-9-(ethoxyimino)-3-methylnaphtho[2,3-d]isoxazol-4(9H)-one by checkerboard microdilution assay; assay type: functional
Candida albicans [22] = experiment: Antifungal activity against Candida albicans 0304103 assessed as downregulation of GCA2 expression at 8 ug/ml incubated for 24 hrs in presence of (Z)-8-(methoxyimino)-3-methylthieno[3',2':4,5]benzo[1,2-d]isoxazol-4(8H)-one by RT-PCR analysis; assay type: functional, organism-based; conditions: dose 8.0 µg/ml
Candida albicans [23] = experiment: Antifungal activity against Candida albicans 0304103 assessed as downregulation of TEC1 expression at 8 ug/ml incubated for 24 hrs in presence of (Z)-8-(methoxyimino)-3-methylthieno[3',2':4,5]benzo[1,2-d]isoxazol-4(8H)-one by RT-PCR analysis; assay type: functional, organism-based; conditions: dose 8.0 µg/ml
Candida albicans [24] = experiment: Inhibition of biofilm formation in Candida albicans 0304103 at 2 ug/ml incubated for 32 hrs by microplate based analysis; assay type: functional, organism-based; conditions: dose 2.0 µg/ml
Candida albicans [25] = experiment: Synergistic antifungal activity against Candida albicans 0304103 assessed as inhibition of fungal growth incubated for 48 hrs in presence of (Z)-8-(isopropoxyimino)-3-methylthieno[3',2':4,5]benzo[1,2-d]isoxazol-4(8H)-one by checkerboard microdilution assay; assay type: functional
Cryptococcus neoformans [26] = experiment: Antifungal activity against Cryptococcus neoformans ATCC 34877 assessed as reduction in fungal growth incubated for 72 hrs by liquid based microdilution method; assay type: functional
Cryptococcus neoformans [27] = experiment: Antifungal activity against Cryptococcus neoformans H99 assessed as reduction in fungal growth incubated for 72 hrs by liquid based microdilution method; assay type: functional
Candida albicans [28] = experiment: Synergistic antifungal activity against Candida albicans 0304103 assessed as inhibition of fungal growth incubated for 48 hrs in presence of (Z)-8-(methoxyimino)benzo[1,2-b:4,5-b']dithiophen-4(8H)-one by checkerboard microdilution assay; assay type: functional
Candida albicans [29] = experiment: Synergistic antifungal activity against Candida albicans 0304103 assessed as inhibition of fungal growth incubated for 48 hrs in presence of (Z)-8-(methoxyimino)-3-propylthieno[3',2':4,5]benzo[1,2-d]isoxazol-4(8H)-one by checkerboard microdilution assay; assay type: functional
Candida albicans [30] = experiment: Synergistic antifungal activity against Candida albicans 0304103 assessed as inhibition of fungal growth incubated for 48 hrs in presence of (Z)-3-ethyl-8-(methoxyimino)thieno[3',2':4,5]benzo[1,2-d]isoxazol-4(8H)-one by checkerboard microdilution assay; assay type: functional

OC(Cn1cncn1)(Cn1cncn1)c1ccc(F)cc1F [FLUCONAZOLE]
inhibition at 64 µg/mL (Cryptococcus neoformans [1]): 80%
Activity (Candida albicans [2]): 5.31 log10CFU/g
Activity (Candida albicans [3]): Active
Activity (Candida albicans [4]): Active
MIC80 (Candida albicans [5]): 1 µg/mL
MIC80 (Candida albicans [6]): 1 µg/mL
Activity (Candida albicans [7]): Active
MIC80 [8]: 1 µg/mL (≈ 3.27 µM)
MIC80 (Candida albicans [9]): 1 µg/mL
inhibition at 8 µg/mL (Candida albicans [10]): 50%
MIC80 (Candida albicans [11]): 0.5 µg/mL (≈ 1.63 µM)
fold change (FC) (Candida albicans [12]): 0.8
MIC80 (Candida albicans [13]): 2 µg/mL
MIC80 (Nakaseomyces glabratus): 32 µg/mL (≈ 104 µM)
MIC80 (Candida albicans [14]): 4 µg/mL
MIC80 (Candida tropicalis): > 64 µg/mL
Activity (Candida albicans [15]): 5.02 log10CFU/g
Activity (Candida albicans [16]): Active
MIC80 (Candida albicans [17]): > 64 µg/mL
MIC80 (Candida albicans [18]): 2 µg/mL
MIC80 (Candida albicans [19]): > 64 µg/mL
Activity (Candida albicans [20]): Active
MIC80 (Candida albicans [21]): 0.5 µg/mL
Activity (Candida albicans [22]): Active
Activity (Candida albicans [23]): Active
inhibition (Candida albicans [24]): inactive
MIC80 (Candida albicans [25]): 2 µg/mL
MIC80 (Cryptococcus neoformans [26]): 1 µg/mL (≈ 3.27 µM)
MIC80 (Cryptococcus neoformans [27]): 2 µg/mL (≈ 6.53 µM)
MIC80 (Candida albicans [28]): 1 µg/mL
MIC80 (Candida albicans [29]): 8 µg/mL
MIC80 (Candida albicans [30]): 1 µg/mL
